pIC50, pKi: −log10 of the molar value.

For assay [1], the target named is Prostaglandin G/H synthase 1 (Homo sapiens, UniProt P23219). Nature of the assay: biochemical. It counts as tissue-based, Platelet. The settings on record: platelet.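 Further: inhibition of COX-1 enzyme activity, with arachidonic acid supplied as substrate; in other assays of this panel Not Active means under 50% inhibition at 10 µM.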
Assay [2] deals with 5-hydroxytryptamine receptor 2B (Homo sapiens, UniProt P41595). It is filed as cell membranes, CHO-K1, Membrane. Conditions: for IC50: cho-k1.
Sequence of 5-hydroxytryptamine receptor 2B (P41595 whole entry): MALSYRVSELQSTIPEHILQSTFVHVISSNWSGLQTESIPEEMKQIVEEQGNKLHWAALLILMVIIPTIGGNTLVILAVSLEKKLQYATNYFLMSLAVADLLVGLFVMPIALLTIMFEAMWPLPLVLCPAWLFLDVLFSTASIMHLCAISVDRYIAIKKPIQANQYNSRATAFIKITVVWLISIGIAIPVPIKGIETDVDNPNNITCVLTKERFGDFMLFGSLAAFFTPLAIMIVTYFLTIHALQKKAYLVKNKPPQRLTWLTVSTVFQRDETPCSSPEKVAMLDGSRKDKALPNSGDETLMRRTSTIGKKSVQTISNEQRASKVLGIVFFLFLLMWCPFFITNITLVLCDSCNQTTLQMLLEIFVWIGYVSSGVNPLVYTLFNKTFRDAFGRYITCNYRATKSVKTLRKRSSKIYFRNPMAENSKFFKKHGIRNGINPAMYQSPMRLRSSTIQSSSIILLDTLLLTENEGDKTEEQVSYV
Assay [3] has as its target T1, Nitric oxide synthase, inducible (Mus musculus, UniProt P29477).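 Further: inhibition of iNOS enzyme activity measured with L-arginine as substrate; in other assays of this panel Not Active means under 50% inhibition at 10 µM.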
T1 sequence (P29477 whole entry): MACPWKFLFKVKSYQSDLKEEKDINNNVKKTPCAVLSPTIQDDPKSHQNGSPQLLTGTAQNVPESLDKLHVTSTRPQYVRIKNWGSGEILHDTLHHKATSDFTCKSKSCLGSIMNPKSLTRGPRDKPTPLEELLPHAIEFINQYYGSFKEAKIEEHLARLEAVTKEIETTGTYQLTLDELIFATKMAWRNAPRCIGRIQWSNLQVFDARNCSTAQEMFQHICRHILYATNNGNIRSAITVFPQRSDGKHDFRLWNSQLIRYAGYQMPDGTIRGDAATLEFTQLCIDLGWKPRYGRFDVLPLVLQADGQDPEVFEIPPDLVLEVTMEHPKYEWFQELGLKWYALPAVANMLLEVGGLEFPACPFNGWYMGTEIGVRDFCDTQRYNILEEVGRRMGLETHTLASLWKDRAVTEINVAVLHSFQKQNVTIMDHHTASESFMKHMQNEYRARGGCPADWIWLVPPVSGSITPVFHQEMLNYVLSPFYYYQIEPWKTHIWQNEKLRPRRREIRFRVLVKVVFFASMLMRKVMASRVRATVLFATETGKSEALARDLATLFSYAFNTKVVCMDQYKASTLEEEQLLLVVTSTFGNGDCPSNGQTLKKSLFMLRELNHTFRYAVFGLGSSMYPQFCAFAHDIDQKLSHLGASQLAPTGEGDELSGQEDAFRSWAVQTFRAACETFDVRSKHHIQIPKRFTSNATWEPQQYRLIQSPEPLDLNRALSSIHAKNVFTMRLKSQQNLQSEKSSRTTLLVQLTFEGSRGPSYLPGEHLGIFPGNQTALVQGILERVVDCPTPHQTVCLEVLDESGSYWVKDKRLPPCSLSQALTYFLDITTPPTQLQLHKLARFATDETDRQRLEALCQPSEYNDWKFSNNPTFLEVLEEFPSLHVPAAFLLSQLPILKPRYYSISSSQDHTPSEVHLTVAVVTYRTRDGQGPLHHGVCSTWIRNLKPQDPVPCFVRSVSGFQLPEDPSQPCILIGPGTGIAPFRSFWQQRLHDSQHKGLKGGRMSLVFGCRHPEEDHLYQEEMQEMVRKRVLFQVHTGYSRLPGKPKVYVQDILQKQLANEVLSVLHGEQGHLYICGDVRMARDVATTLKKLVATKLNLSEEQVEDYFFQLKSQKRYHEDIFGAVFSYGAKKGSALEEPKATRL
Set-up: species or system Escherichia coli.

Another assay addresses T2, Interstitial collagenase (Homo sapiens, UniProt P03956).
T2 sequence (P03956 whole entry): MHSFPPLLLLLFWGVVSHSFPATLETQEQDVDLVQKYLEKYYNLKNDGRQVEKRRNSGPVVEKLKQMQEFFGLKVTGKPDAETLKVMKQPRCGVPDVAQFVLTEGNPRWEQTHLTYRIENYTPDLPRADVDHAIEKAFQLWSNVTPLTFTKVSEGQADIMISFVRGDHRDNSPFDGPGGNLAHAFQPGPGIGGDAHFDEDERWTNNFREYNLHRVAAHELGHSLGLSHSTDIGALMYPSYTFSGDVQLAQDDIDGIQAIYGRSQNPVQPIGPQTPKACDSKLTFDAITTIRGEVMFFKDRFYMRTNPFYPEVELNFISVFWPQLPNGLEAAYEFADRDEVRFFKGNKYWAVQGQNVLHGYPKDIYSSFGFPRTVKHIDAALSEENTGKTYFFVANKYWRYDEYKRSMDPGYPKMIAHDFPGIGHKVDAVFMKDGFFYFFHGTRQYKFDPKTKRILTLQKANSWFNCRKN
It counts as tissue-based, Rheumatoid synovial fibroblasts.

Assay [4] deals with Epidermal growth factor receptor (Homo sapiens, UniProt P00533). Put plainly: DRUGMATRIX: Protein Tyrosine Kinase, EGF Receptor enzyme inhibition (substrate: Poly(Glu:Tyr)). It counts as cell-based, Insect cells. Conditions: insect cells; Not Active = under 50% inhibition at 10 µM.
Sequence of Epidermal growth factor receptor (P00533 whole entry): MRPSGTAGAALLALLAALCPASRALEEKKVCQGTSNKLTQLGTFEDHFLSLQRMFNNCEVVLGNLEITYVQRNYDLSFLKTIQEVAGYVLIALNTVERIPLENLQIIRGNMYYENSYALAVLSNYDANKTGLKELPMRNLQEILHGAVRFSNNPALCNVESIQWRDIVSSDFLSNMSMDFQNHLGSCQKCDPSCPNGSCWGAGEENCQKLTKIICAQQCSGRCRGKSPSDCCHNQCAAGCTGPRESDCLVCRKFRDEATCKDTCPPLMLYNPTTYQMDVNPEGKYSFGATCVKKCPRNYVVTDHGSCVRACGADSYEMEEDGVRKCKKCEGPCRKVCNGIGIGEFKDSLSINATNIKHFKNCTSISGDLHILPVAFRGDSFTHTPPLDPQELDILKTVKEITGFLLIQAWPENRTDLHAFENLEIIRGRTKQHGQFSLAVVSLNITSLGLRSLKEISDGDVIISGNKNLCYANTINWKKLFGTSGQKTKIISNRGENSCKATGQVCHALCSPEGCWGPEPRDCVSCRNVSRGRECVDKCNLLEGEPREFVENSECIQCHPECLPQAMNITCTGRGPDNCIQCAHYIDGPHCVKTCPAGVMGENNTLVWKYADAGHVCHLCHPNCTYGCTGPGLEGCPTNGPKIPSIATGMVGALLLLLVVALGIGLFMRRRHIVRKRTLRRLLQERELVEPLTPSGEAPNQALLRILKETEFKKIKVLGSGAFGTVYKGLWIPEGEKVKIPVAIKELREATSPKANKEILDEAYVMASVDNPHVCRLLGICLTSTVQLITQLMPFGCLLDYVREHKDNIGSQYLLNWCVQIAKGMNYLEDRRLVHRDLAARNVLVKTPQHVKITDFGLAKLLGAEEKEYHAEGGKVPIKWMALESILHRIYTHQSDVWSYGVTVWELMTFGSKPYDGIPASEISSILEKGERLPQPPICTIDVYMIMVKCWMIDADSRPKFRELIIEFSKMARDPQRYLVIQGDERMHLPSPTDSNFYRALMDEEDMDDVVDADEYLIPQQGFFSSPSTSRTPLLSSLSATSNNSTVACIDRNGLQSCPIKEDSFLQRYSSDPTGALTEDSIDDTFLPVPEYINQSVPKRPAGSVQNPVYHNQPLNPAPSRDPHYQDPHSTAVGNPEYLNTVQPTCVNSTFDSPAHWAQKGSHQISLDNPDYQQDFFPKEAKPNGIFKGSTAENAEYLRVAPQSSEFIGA
A short description of assay [5]: DRUGMATRIX: Interleukin IL-1 radioligand binding (ligand: [125I] interleukin 1beta). The settings on record: nih3t3; Not Active = under 50% inhibition at 10 µM. It counts as cell membranes, Membrane.
Assay [6] has as its target Beta-1 adrenergic receptor (Homo sapiens, UniProt P08588). Put plainly: DRUGMATRIX: Adrenergic beta1 radioligand binding (ligand: [125I] Cyanopindolol). It counts as cell membranes, CHO-K1, Membrane. The settings on record: Not Active = under 50% inhibition at 10 µM; for IC50: cho-k1.
Assay [7] addresses T3, Alpha-1A adrenergic receptor (Rattus norvegicus, UniProt P43140).
T3 sequence (P43140 whole entry): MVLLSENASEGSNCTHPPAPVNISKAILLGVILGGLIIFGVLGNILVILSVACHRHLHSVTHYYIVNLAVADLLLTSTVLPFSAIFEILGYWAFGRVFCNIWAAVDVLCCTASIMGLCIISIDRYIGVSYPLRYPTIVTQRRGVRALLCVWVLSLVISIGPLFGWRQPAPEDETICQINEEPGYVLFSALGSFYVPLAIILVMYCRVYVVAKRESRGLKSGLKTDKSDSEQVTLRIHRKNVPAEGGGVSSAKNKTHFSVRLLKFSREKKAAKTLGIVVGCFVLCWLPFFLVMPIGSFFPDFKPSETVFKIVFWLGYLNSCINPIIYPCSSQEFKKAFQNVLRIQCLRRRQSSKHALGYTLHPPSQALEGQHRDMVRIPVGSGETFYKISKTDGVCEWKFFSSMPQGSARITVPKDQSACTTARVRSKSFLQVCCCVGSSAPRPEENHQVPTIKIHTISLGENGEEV
Put plainly: DRUGMATRIX: Alpha-1A adrenergic receptor radioligand binding (ligand: prazosin). It is filed as cell membranes, Wistar, Submaxillary gland, Membrane. The settings on record: Not Active = under 50% inhibition at 10 µM.

A further assay deals with Glycine receptor (Rattus norvegicus, UniProt P22771+P24524+P07727+P20781). It counts as cell membranes, Wistar, Spinal cord, Membrane.
The target of assay [8] is Delta-type opioid receptor (Homo sapiens, UniProt P41143). It is filed as cell membranes, HEK293, Membrane. The settings on record: hek293. Further: in other assays of this panel Not Active means under 50% inhibition at 10 µM.
Sequence of Delta-type opioid receptor (P41143 whole entry): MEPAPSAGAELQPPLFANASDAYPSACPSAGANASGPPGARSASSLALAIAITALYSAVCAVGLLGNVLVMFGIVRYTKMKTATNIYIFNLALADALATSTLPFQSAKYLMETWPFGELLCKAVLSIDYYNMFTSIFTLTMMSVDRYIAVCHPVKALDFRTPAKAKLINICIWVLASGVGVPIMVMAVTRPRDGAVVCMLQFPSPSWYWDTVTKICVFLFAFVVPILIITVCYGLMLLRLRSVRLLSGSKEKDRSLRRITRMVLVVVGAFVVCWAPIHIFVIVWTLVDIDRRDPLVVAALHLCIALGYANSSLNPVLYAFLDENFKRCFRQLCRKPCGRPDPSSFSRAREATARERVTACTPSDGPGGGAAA
In assay [9] the target is Receptor tyrosine-protein kinase erbB-2 (Homo sapiens, UniProt P04626). Nature of the assay: biochemical. Conditions: insect cells. It is filed as cell-based, Insect cells.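 Further: inhibition of HER2 kinase enzyme activity, measured with Poly(Glu:Tyr) as the phosphorylation substrate; in other assays of this panel Not Active means under 50% inhibition at 10 µM.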
Sequence of Receptor tyrosine-protein kinase erbB-2 (P04626 whole entry): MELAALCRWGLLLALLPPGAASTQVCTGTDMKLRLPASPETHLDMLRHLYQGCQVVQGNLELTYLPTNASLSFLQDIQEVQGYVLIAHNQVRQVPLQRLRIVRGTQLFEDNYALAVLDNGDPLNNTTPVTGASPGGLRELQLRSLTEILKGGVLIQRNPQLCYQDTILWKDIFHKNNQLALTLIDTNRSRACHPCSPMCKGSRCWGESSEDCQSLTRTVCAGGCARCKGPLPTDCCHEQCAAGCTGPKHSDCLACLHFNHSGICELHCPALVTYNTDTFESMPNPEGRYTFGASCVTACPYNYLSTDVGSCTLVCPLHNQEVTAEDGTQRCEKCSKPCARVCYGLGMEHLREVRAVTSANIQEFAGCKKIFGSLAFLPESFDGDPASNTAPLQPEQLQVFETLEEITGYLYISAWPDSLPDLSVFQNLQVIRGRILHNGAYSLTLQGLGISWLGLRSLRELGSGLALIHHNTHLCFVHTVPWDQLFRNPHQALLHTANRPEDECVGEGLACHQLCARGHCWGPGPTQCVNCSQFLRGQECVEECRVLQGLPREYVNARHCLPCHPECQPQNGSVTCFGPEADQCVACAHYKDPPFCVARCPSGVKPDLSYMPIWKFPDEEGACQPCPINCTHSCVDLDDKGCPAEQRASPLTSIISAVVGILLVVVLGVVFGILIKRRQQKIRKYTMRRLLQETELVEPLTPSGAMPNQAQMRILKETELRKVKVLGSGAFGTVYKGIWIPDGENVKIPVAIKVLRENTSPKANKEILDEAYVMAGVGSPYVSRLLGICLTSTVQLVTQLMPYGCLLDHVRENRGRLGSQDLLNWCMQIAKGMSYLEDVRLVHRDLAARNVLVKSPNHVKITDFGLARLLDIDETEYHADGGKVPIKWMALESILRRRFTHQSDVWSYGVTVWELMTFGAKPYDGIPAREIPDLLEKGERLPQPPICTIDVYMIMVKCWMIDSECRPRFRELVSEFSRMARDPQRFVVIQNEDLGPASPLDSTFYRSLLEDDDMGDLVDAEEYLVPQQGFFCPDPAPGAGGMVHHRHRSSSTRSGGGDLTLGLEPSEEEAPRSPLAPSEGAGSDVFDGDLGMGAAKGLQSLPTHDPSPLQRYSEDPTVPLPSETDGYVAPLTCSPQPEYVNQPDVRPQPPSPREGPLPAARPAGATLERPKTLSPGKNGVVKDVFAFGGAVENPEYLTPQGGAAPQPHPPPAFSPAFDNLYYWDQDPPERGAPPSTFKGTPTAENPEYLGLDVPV

Sequence of Beta-1 adrenergic receptor (P08588 whole entry): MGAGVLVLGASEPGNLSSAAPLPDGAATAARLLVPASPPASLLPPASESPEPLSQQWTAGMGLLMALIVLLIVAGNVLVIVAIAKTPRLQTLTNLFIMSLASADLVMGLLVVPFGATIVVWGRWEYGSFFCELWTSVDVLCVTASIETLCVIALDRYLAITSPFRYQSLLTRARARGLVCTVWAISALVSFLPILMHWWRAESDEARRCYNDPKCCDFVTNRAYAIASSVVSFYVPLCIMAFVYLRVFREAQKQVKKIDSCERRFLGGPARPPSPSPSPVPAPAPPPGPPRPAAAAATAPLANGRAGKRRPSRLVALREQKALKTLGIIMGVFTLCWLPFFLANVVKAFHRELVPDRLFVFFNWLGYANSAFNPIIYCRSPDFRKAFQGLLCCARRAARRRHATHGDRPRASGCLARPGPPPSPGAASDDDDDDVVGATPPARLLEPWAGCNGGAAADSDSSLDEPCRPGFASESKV
Sequence of Prostaglandin G/H synthase 1 (P23219 whole entry): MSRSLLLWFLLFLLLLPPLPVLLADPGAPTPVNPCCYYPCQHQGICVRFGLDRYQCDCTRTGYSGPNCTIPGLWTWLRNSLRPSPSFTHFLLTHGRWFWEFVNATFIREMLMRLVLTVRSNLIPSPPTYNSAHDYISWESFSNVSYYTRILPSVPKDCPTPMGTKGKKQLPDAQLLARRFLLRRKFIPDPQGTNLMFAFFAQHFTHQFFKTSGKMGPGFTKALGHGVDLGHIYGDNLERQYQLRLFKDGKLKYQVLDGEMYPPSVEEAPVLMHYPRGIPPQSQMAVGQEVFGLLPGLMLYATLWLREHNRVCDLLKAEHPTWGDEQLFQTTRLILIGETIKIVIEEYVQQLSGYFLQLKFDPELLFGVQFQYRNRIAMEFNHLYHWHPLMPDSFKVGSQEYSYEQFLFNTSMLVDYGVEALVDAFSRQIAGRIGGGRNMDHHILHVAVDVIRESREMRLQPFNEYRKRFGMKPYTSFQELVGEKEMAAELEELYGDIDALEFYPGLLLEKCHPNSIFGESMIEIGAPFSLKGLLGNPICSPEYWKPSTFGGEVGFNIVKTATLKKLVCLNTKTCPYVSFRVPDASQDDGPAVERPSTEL

In the case of `CN1C[C@H](C(=O)N[C@]2(C)O[C@@]3(O)[C@@H]4CCCN4C(=O)[C@H](Cc4ccccc4)N3C2=O)C=C2c3cccc4[nH]cc(c34)C[C@H]21` [ERGOTAMINE], the IC50 entry (in assay [1]; in [3]; against Interstitial collagenase; in [4]; in [5]; on Glycine receptor) was “Not Active” in each case. Moreover, the IC50 result in [8] and in assay [9] was “Not Active” in each case. For the same compound, the values for the pIC50 in assay [2] (read-out: IC50), in assay [6] (read-out: IC50) and in [7] (read-out: IC50) were 8.46, 5.38 and 8.09, respectively. For the same compound, the pKi (in general, the Ki on a negative log10 scale, so that one unit is a factor of ten) in assay [2] (read-out: Ki) was 8.66; in assay [6] (read-out: Ki), 5.62; in assay [7] (read-out: Ki), 8.49. Moreover, the Ki entry in assay [5] was “Not Active”.

Consider `Cc1c(-c2ccccc2)oc2c(C(=O)OCCN3CCCCC3)cccc2c1=O` [FLAVOXATE], for which the IC50 result (in assay [1]; in assay [2]; in assay [3]; against Interstitial collagenase; in assay [4]; in assay [5]) was “Not Active” each time. Also, the IC50 entry (in [6]; in assay [7]; against Glycine receptor; in assay [8]; in [9]) was “Not Active” each time. Moreover, in assay [5], the Ki entry is listed as “Not Active”.

On to `Nc1nc(=O)[nH]cc1F` [FLUCYTOSINE], for which the IC50 entry (in assay [1]; in assay [2]; in [3]; at Interstitial collagenase; in assay [4]; in assay [5]) was “Not Active” each time. Moreover, the IC50 entry (in [6]; in [7]; at Glycine receptor; in assay [8]; in [9]) was “Not Active” in each case. For the same compound, the Ki result in assay [5] was “Not Active”.

On to `O=C1OC2(c3ccc(O)cc3Oc3cc(O)ccc32)c2ccccc21` [FLUORESCEIN], for which the IC50 entry (in [1]; in [2]; in assay [3]; against Interstitial collagenase; in assay [4]; in [5]) was “Not Active” in each case. Also, the IC50 result (in [6]; in assay [7]; at Glycine receptor; in [8]; in [9]) was “Not Active” throughout. Besides, the Ki result in assay [5] is listed as “Not Active”.

For the compound `CC(=O)[C@@]1(O)CC[C@H]2[C@@H]3C[C@H](C)C4=CC(=O)C=C[C@]4(C)[C@@]3(F)[C@@H](O)C[C@@]21C` [FLUOROMETHOLONE], the IC50 entry (in assay [1]; in assay [2]; in [3]; on Interstitial collagenase; in [4]; in assay [5]) was “Not Active” throughout. Further, the IC50 result (in assay [6]; in assay [7]; against Glycine receptor; in assay [8]; in assay [9]) was “Not Active” in each case. Besides, in assay [5], the Ki entry is on record as “Not Active”.

Turning to `O=c1[nH]cc(F)c(=O)[nH]1` [FLUOROURACIL], the IC50 entry (in [1]; in assay [2]; in assay [3]; against Interstitial collagenase; in [4]; in assay [5]) was “Not Active” each time. In addition, the IC50 entry (in assay [6]; in [7]; at Glycine receptor; in assay [8]; in assay [9]) was “Not Active” each time. Besides, the Ki entry in assay [5] is “Not Active”.
